Experimental data: patent US9115073B2, “1,3-diphenylpropane derivatives, preparations and uses thereof” (GENFIT, priority 2011, dated 2015)

Legend:
hPPARdelta = biological target: T1, hPPARdelta (Homo sapiens, UniProt Q03181); experiment: Gal4-hPPARdelta transactivation assay in COS-7 cells (luciferase); assay type: cell-based
T1 construct: Gal4-hPPARδ(LBD); Gal4 (fusion partner); expressed in transfected cells; host or cells: COS-7 (monkey kidney)
T1 sequence (Q03181 211-439 limits assumed): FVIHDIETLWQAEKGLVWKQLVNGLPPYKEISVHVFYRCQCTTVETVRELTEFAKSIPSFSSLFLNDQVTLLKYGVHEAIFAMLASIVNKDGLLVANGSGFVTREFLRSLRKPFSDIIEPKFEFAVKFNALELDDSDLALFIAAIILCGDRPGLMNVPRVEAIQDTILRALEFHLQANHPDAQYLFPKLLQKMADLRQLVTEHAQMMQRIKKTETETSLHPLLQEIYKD
Outline: (§1)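 COS-7 cells transiently co-transfected with Gal4-hPPAR chimeras and a Gal4(RE)_TkpGL3 luciferase reporter (1/50 ratio) were seeded at 20,000 cells/well for 4 h, then treated in 2% lipid-free synthetic serum medium (0.1% DMSO). EC50 and Hill slope came from fitted luciferase curves. Emax is relative to fenofibrate 100 μM (α), rosiglitazone 10 μM (γ) or GW501516 1 μM (δ).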

db/db mice = experiment: Diabetes model (db/db mice): non-fasting glycemia and HbA1c; assay type: in vivo, mouse
Experimental: Diabetes Model (db/db Mice)
The male db/db mice (8 to 9 week-old) were purchased from CERJ JANVIER (Le Genest Saint Isle, France). Animal care and handling was performed according to the Declaration of Helsinki and was approved by the local ethics committees. The animals were kept under a 12 hour light/dark standard light cycle and had free access to water and food. Animals were fed standard rodent chow diet (A03 SAFE, Augy, France). Mice were randomly assigned into different treatment groups, weighed and dosed by oral gavage (10 ml/kg body weight) once daily in the morning, either with the vehicle or with the compound. The vehicle used was 0.1% Tween 80 (Polyoxyethylenesorbitan monooleate) and 1% carboxymethylcellulose in 98.9% distilled water. The entire treatment protocol took 37 days. Non-fasting glycemia was measured at 8 A.M. with the Smart Check blood glucose monitoring system, in mice that have had unrestricted access to food and water throughout the night. The blood concentration of the glycosylated hemoglobin A1c was determined using the Randox kit for Daytona automate (Randox, cat# HA 3830) according to the manufacturer's recommendations. The HbA1c result was calculated as a percentage of the total hemoglobin concentration.

hPPARalpha = biological target: T2, hPPARalpha (Homo sapiens, UniProt Q07869); experiment: Gal4-hPPARalpha transactivation assay in COS-7 cells (luciferase); assay type: cell-based
T2 construct: Gal4-hPPARα(LBD); Gal4 (fusion partner); expressed in transfected cells; host or cells: COS-7 (monkey kidney)
T2 sequence (Q07869 239-466 limits assumed): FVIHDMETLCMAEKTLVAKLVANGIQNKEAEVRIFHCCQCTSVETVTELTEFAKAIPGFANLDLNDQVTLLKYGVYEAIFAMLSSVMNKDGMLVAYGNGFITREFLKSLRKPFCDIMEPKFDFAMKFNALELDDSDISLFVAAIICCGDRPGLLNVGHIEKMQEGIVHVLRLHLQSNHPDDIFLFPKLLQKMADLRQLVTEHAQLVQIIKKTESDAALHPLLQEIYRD
Outline: as §1

[1] = tested on: brain amyloid-beta levels; experiment: Alzheimer's disease model (APPPS1 mice): brain amyloid-beta levels by ELISA; assay type: in vivo, mouse; settings: 60 days, +/- standard deviation
hPPARgamma = biological target: T3, hPPARgamma (Homo sapiens, UniProt P37231); experiment: Gal4-hPPARgamma transactivation assay in COS-7 cells (luciferase); assay type: cell-based
T3 construct: Gal4-hPPARγ(LBD); Gal4 (fusion partner); expressed in transfected cells; host or cells: COS-7 (monkey kidney)
T3 sequence (P37231 238-503 limits assumed): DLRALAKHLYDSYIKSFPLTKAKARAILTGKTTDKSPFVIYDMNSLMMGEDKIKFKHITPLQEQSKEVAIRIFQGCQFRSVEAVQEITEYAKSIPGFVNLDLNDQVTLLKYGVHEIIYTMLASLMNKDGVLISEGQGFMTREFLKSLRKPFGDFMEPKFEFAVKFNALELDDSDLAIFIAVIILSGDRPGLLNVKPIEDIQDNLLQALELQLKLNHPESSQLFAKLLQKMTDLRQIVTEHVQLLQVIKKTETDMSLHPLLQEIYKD
Outline: as §1

[2] = maximal relative activation vs reference, listed as cpd 14-1-2
[3] = treated group, start of study period

COC(c1ccc(OC(F)(F)F)cc1)C1CC1c1cc(C)c(OC(C)(C)C(=O)O)c(C)c1 (single isomer, unassigned) [Cpd 14-1-2, 2-(4-(2-(methoxy(4-(trifluoromethoxy)phenyl)methyl)cyclopropyl)-2,6-dimethylphenoxy)-2-methylpropanoic acid]
EC50 (hPPARdelta; Gal4-hPPARδ(LBD) transactivation): 4 nM
Gal4-hPPARδ(LBD) TOP (% ref) (hPPARdelta; [2]): 90 % ref
Non-fasting glycemia (db/db mice; 3 mg per kg per day by gavage, day 30): 146 mg/dL
glycated hemoglobin (HbA1c) (db/db mice; 3 mg per kg per day by gavage, day 37): 4.12%
decrease of non-fasting glycemia during the study period (db/db mice; 3 mg per kg per day by gavage, start to day 30): 48%
change in HbA1c during the study period (db/db mice; 3 mg per kg per day by gavage, start to day 37): no significant change
non-fasting glycemia lower as compared to untreated controls (db/db mice; 3 mg per kg per day, day 30, t-test p-value <0.0001): 60%
HbA1c lower as compared to the diabetic controls (db/db mice; 3 mg per kg per day, day 37, t-test p-value <0.01): 28%
Non-fasting glycemia (db/db mice; [3]): 258 mg/dL
glycated hemoglobin (HbA1c) (db/db mice; [3]): 4.16%
EC50 (hPPARalpha; Gal4-hPPARα(LBD) transactivation): 12 nM
Gal4-hPPARα(LBD) TOP (% ref) (hPPARalpha; [2]): 46 % ref
amyloid-beta peptide Aβ 1-38, mean reduction from untreated APPPS1 mice ([1]; 1 mpk per day): 76 % +/− 16 % (**)
amyloid-beta peptide Aβ 1-40, mean reduction from untreated APPPS1 mice ([1]; 1 mpk per day): 55 % +/− 17 % (**)
amyloid-beta peptide Aβ 1-42, mean reduction from untreated APPPS1 mice ([1]; 1 mpk per day): 56 % +/− 19 % (**)
amyloid-beta peptide Aβ 1-38, mean reduction from untreated APPPS1 mice ([1]; 10 mpk per day): 97 % +/− 3 % (**)
amyloid-beta peptide Aβ 1-40, mean reduction from untreated APPPS1 mice ([1]; 10 mpk per day): 72 % +/− 14 % (**)
amyloid-beta peptide Aβ 1-42, mean reduction from untreated APPPS1 mice ([1]; 10 mpk per day): 74 % +/− 14 % (**)
EC50 (hPPARgamma; Gal4-hPPARγ(LBD) transactivation): 11 nM
Gal4-hPPARγ(LBD) TOP (% ref) (hPPARgamma; [2]): 82 % ref
